Reference: publication PMC10538207, “Bioactive-Guided Phytochemical Investigations, In Vitro and In Silico Alpha-Glucosidase Inhibition of Two Vietnamese Medicinal Plants Dicranopteris linearis and Psychotria adenophylla” (Pharmaceuticals, 2023)
Where two headings read alike, the source gives them in different places.

How the values were obtained:
alpha-glucosidase = target: T1, alpha-glucosidase (Saccharomyces cerevisiae, UniProt P53341); experiment: biochemical; conditions: for Binding Affinity Exp: ΔGexp calculated from IC50, T=300 K
T1 construct: purchased Sigma-Aldrich Co. (Saint Louis, MO, USA)
T1 sequence (P53341 whole entry): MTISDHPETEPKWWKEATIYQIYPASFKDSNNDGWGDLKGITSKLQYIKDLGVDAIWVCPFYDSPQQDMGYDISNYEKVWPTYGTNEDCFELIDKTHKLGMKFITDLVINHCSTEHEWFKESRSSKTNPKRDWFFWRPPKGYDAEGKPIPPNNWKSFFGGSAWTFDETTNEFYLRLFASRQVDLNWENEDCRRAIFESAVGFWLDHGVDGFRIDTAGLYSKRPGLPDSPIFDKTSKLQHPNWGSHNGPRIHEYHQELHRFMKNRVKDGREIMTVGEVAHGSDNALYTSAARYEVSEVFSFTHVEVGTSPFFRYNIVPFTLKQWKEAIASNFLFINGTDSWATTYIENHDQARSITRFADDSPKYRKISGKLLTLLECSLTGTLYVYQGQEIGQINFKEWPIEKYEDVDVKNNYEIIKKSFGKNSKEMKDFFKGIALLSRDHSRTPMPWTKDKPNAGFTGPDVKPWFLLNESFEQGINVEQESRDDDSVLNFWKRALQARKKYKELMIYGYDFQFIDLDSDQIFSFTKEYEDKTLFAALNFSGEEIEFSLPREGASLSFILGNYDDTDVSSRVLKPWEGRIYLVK
Description: The conditions followed that of our previous report with small modifications.

HepG2 cells = conditions: read-out: hepatoprotective activity EC50; cited from earlier work
[1] = isolated compounds, read-out: Alpha-glucosidase inhibition IC50 (isolated compounds)

Row | SMILES | IC50 (alpha-glucosidase; [1]) [µM] | Binding Affinity Exp (alpha-glucosidase) [kcal/mol] | IC50 (alpha-glucosidase) [µM] | EC50 (HepG2 cells) [µM]
1 | CC1(C)C[C@H](O)C[C@@](C)(O)/C(O)=C\C1=O [DL5, chakyunglupulin B] | 82.2 ± 2.2 | -5.6 | – | –
2 | Cc1cc(O)c2c(c1)C(=O)c1cccc(O)c1C2=O [PA5, chrysophanol] | – | -5.5 | 98.2 ± 2.2 | –
3 | CC[C@H](CC[C@@H](C)[C@H]1CC[C@H]2[C@@H]3CC=C4C[C@@H](O)CC[C@]4(C)[C@H]3CC[C@]12C)C(C)C [DL1, β-sitosterol] | > 300 | – | – | –
4 | COc1cc(/C=C/C(=O)NC(=O)c2ccc(O)c(OC)c2)ccc1O [PA6, tribulusimide D] | 76.2 ± 2.9 | -5.7 | – | 13.5
5 | COc1cc(-c2oc3cc(O)c(OC)c(O)c3c(=O)c2OC)ccc1O [DL8, jaceidin] | 282 ± 9.2 | -4.9 | – | –
6 | COc1ccc(-c2oc3cc(O)c(OC)c(O)c3c(=O)c2OC)cc1OC [DL9, bonanzin] | > 300 | – | – | –
7 | CC[C@H](CC[C@@H](C)[C@H]1CC[C@H]2[C@@H]3CC=C4C[C@@H](O[C@@H]5O[C@H](CO)[C@@H](O)[C@H](O)[C@H]5O)CC[C@]4(C)[C@H]3CC[C@]12C)C(C)C [DL2, daucosterol] | > 300 | – | – | –
8 | O=c1c(-c2ccc(O)cc2)coc2cc(O)ccc12 [DL6, daidzein] | – | – | 66.9 ± 1.7 | –
9 | CC(C)(C)c1ccc(C(=O)c2ccc(C(C)(C)C)cc2C(C)(C)C)c(C(C)(C)C)c1 [DL4, 2,2′,4,4′-tetra-tert-butylbenzophenone] | > 300 | – | – | –
10 | O=c1c(O[C@@H]2O[C@H](CO)[C@@H](O)[C@H](O)[C@H]2O)c(-c2ccc(O)c(O)c2)oc2cc(O)cc(O)c12 [DL12, isoquercetin] | – | – | 99.8 ± 1.2 | –
11 | CC[C@H](CC[C@@H](C)[C@H]1CC[C@H]2[C@@H]3CC(O)C4=CC(=O)CC[C@]4(C)[C@H]3CC[C@]12C)C(C)C (stereo partly drawn) [DL3, 6-hydroxystigmast-4-en-3-one] | 177 ± 3.6 | -5.1 | – | –
12 | O=c1cc(-c2ccc(O)c(O)c2)oc2cc(O)cc(O)c12 [DL10, luteolin] | 67.1 ± 1.2 | – | – | –

Further lines, with some results ahead:

Row | IC50 (alpha-glucosidase; [1]) [µM] | SMILES | Binding Affinity Exp (alpha-glucosidase) [kcal/mol] | IC50 (alpha-glucosidase) [µM] | EC50 (HepG2 cells) [µM]
13 | > 300 | O=Cc1ccc(CO)o1 [PA7, 5-hydroxymethylfurfural] | – | – | –
14 | > 300 | COc1c(-c2ccc(O)c(O)c2)oc2cc(O)cc(O)c2c1=O [PA1, 3-O-methylquercetin] | – | – | –
15 | 250 ± 11.4 | COc1cc(/C=C/C=O)ccc1O [PA4, coniferyl aldehyde] | – | – | –
